The target in data set [1] is T1, γ-secretase (cleavage of APP, Aβ42) (Homo sapiens, UniProt P49768).
T1 construct: endogenous in cells; host or cells: HEK AP-GL-T16 luciferase reporter cells (tetracycline-induced APP substrate)
As to the kind of experiment: Aβ (1-42) cellular assay (Aβ ELISA, HEK AP-GL-T1 6 cells). It is filed as cell-based. The note with it: for inhibition at 1 µM: at 1 μM (concentration in brackets); for IC50: cellular Aβ42 ELISA, 24 h compound treatment. In a few lines: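 HEK AP-GL-T1 6 cells, with APP processing induced by tetracycline at compound addition 24 h post-plating. After 24 h of treatment, Aβ42 in conditioned medium (protease inhibitors added, frozen) was quantified by fluorometric sandwich ELISA (ex 460/em 560 nm) against an Aβ peptide standard curve.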

For data set [2], the target named is T2, γ-secretase (Notch cleavage activity) (Homo sapiens, UniProt P49768).
T2 construct: endogenous in cells; host or cells: SUP-T1 cells
In words: Cleaved Notch1 Sandwich ELISA (SUP-T1 cell line). It is filed as cell-based. The note with it: for IC50: SUP-T1 cells, 16 h; for Notch Elisa/Aβ42: ratio Notch Elisa IC50 to Aβ42 IC50. In a few lines:
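SUP-T1 cells endogenously express a truncated Notch fragment that serves as γ-secretase substrate. Cells at 1.0×10^6 cells/mL in RPMI-1640 with 10% FBS were treated 16 h with serially diluted compounds in DMSO. Cleaved Notch intracellular domain was quantified by sandwich ELISA on equal protein amounts.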

The structures appear in SMILES notation. Where “and” joins values, the source holds several entries; their conditions need not be identical. Equal entries are not always repeated.

`O=C(O)c1ccc(CN(C2CCOCC2)S(=O)(=O)c2ccc(Cl)cc2)cc1` [Example 1, 4-((4-Chloro-N-(tetrahydro-2H-pyran-4-yl)phenylsulfonamido)methyl)benzoic acid] returned a melting point of 218 to 219 °C. Also, the inhibition at 1 µM in data set [1] (read-out: Aβ42 % Inh) was determined as 6%.

Molecule `COc1ccc(CN(C2CCOCC2)S(=O)(=O)c2ccc(Cl)cc2)cc1C(=O)O` [Example 8, 5-((4-Chloro-N-(tetrahydro-2H-pyran-4-yl)phenylsulfonamido)methyl)-2-methoxy-benzoic acid] returned a melting point of 174 to 176 °C. Moreover, the inhibition at 1 µM in data set [1] (read-out: Aβ42 % Inh) stood at 0%.

`O=C(O)c1ccc(CN(C2CCCCC2)S(=O)(=O)c2ccc(F)cc2)cc1` [Example 9, 4-((N-cyclohexyl-4-fluorophenylsulfonamido)methyl)benzoic acid] had a melting point of 218 to 220 °C. Further, the inhibition at 1 µM in data set [1] (read-out: Aβ42 % Inh) stood at 0%.

For the molecule `CSc1ccc(CN(C2CCOCC2)S(=O)(=O)c2ccc(Cl)cc2)cc1` [Example 10, 4-Chloro-N-(4-(methylthio)benzyl)-N-(tetrahydro-2H-pyran-4-yl)benzene-sulfonamide], the melting point lay within 124 to 127 °C. Moreover, the inhibition at 1 µM in data set [1] (read-out: Aβ42 % Inh) worked out at 0%.

`CS(=O)(=O)c1ccc(CN(C2CCOCC2)S(=O)(=O)c2ccc(Cl)cc2)cc1` [Example 11, 4-Chloro-N-(4-(methylsulfonyl)benzyl)-N-(tetrahydro-2H-pyran-4-yl)benzene-sulfonamide] gave a melting point of 158 to 160 °C. In data set [1] (read-out: Aβ42 % Inh), the inhibition at 1 µM was found to be 0%.

As to `O=S(=O)(c1ccc(Cl)cc1)N(Cc1ccc(OC2CCOCC2)nc1)C1CCOCC1` [Example 13, 4-Chloro-N-(tetrahydro-2H-pyran-4-yl)-N-((6-(tetrahydro-2H-pyran-4-yloxy)-pyridin-3-yl)methyl)benzenesulfonamide], the melting point was in the range of 123 to 125 °C. In addition, the inhibition at 1 µM in data set [1] (read-out: Aβ42 % Inh) was found to be 0%.

Regarding `COC(=O)c1cc(CN(CC2CCOCC2)S(=O)(=O)c2ccc(Cl)cc2)ccc1OC` [Example 16, Methyl 5-((4-chloro-N-((tetrahydro-2H-pyran-4-yl)methyl)phenylsulfonamido)-methyl)-2-methoxybenzoate], the melting point lay in the range of 118 to 119 °C. In data set [1] (read-out: Aβ42 % Inh), the inhibition at 1 µM came to 0%.

For `COc1ccc(CN(CC2CCOCC2)S(=O)(=O)c2ccc(Cl)cc2)cc1C(=O)O` [Example 17, 5-((4-Chloro-N-((tetrahydro-2H-pyran-4-yl)methyl)phenylsulfonamido)methyl)-2-methoxybenzoic acid], the melting point was 158 to 159 °C. Besides, the inhibition at 1 µM in data set [1] (read-out: Aβ42 % Inh) was found to be 14%.

`COC(=O)c1ccc(CN(CC2CCOCC2)S(=O)(=O)c2ccc(Cl)cc2)cc1` [Example 18, Methyl 4-((4-chloro-N-((tetrahydro-2H-pyran-4-yl)methyl)phenylsulfonamido)-methyl)benzoate] showed a melting point of 115 to 117 °C. Further, the inhibition at 1 µM in data set [1] (read-out: Aβ42 % Inh) stood at 94%.

On to `O=C(O)c1ccc(CN(CC2CCOCC2)S(=O)(=O)c2ccc(Cl)cc2)cc1` [Example 19, 4-((4-Chloro-N-((tetrahydro-2H-pyran-4-yl)methyl)phenylsulfonamido)methyl)-benzoic acid], for which the melting point is 188 to 190 °C. In addition, in data set [1] (read-out: Aβ42 % Inh), the inhibition at 1 µM came out at 13%.

Consider `CC[C@H](C1CCCC1)N(Cc1ccc(C(=O)OC)cc1)S(=O)(=O)c1ccc(Cl)cc1` [Example 22, (R)-Methyl 4-((4-chloro-N-(1-cyclopentylpropyl)phenylsulfonamido)methyl)benzoate], for which the melting point lay in the range of 81 to 83 °C. The inhibition at 1 µM in data set [1] (read-out: Aβ42 % Inh) amounted to 0%.

Turning to `CC[C@H](C1CCCC1)N(Cc1ccc(C(=O)O)cc1)S(=O)(=O)c1ccc(Cl)cc1` [Example 23, (R)-4-((4-Chloro-N-(1-cyclopentylpropyl)phenylsulfonamido)methyl)benzoic acid], the melting point fell in the range of 67 to 69 °C. In addition, in data set [1] (read-out: Aβ42 % Inh), the inhibition at 1 µM stood at 0%.

In turn, `O=C(O)c1ccc(CN(C2CCCCC2O)S(=O)(=O)c2ccc(Cl)cc2)cc1` (stereo not drawn) [Example 24, 4-((4-Chloro-N-(2-hydroxycyclohexyl)phenylsulfonamido)methyl)benzoic acid] came in with a melting point of 218 to 219 °C. The inhibition at 1 µM in data set [1] (read-out: Aβ42 % Inh) came out at 51%.

`COC(=O)c1ccc(CN(C2CCCCC2O)S(=O)(=O)c2ccc(Cl)cc2)cc1` (stereo not drawn) [Example 25, Methyl 4-((4-chloro-N-(2-hydroxycyclohexyl)phenylsulfonamido)methyl)benzoate]: the melting point lay in the range of 162 to 164 °C. The molecule further came in with an IC50 in data set [1] of 17.8 nM.

Regarding `N#Cc1ccc(CN(C2CCC2)S(=O)(=O)c2ccc(Cl)cc2)c(F)c1` [Example 26, 4-Chloro-N-(4-cyano-2-fluorobenzyl)-N-cyclobutylbenzenesulfonamide], the melting point was 125 to 127 °C. Also, in data set [1] (read-out: Aβ42 % Inh), the inhibition at 1 µM came to 54%.

The molecule `Cc1ccc(S(=O)(=O)N(Cc2ccc(C#N)cc2F)C2CCC2)cc1` [Example 27, N-(4-Cyano-2-fluorobenzyl)-N-cyclobutyl-4-methylbenzenesulfonamide] yielded a melting point of 146 to 147 °C. In addition, the inhibition at 1 µM in data set [1] (read-out: Aβ42 % Inh) was determined as 37%.

In turn, `N#Cc1ccc(CN(C2CCCC2)S(=O)(=O)c2ccc(Cl)cc2)c(F)c1` [Example 28, 4-Chloro-N-(4-cyano-2-fluorobenzyl)-N-cyclopentylbenzenesulfonamide] yielded a melting point of 176 to 177 °C. Further, the half-inhibitory concentration (IC50) in data set [1] was 301 nM.

Turning to `Cc1ccc(S(=O)(=O)N(Cc2ccc(C#N)cc2F)C2CCCC2)cc1` [Example 29, N-(4-Cyano-2-fluorobenzyl)-N-cyclopentyl-4-methylbenzenesulfonamide], the melting point is 178 to 179 °C. In data set [1] (read-out: Aβ42 % Inh), the inhibition at 1 µM worked out at 0%.

With `O=C(O)c1ccc(CN([C@H]2CCCC[C@@H]2O)S(=O)(=O)c2ccc(Cl)cc2)cc1` [Example 30, 4-((4-Chloro-N-((1S,2S)-2-hydroxycyclohexyl)phenylsulfonamido)methyl)benzoic acid], the melting point lay within 218 to 219 °C. The inhibition at 1 µM in data set [1] (read-out: Aβ42 % Inh) stood at 15%.

The molecule `COC(=O)c1ccc(CN([C@H]2CCCC[C@@H]2O)S(=O)(=O)c2ccc(Cl)cc2)cc1` [Example 31, Methyl 4-((4-chloro-N-((1S,2S)-2-hydroxycyclohexyl)phenylsulfonamido)methyl)benzoate] had a melting point of 150 to 152 °C. The same molecule displayed an IC50 in data set [1] of 199 nM.

Molecule `CC1CCCCC1N(Cc1ccc(C(=O)NC(C)(C)C(=O)O)cc1)S(=O)(=O)c1ccc(C(F)(F)F)nc1` (stereo not drawn) [Example 33, 2-Methyl-2-(4-((N-(2-methylcyclohexyl)-6-(trifluoromethyl)pyridine-3-sulfonamido)methyl)benzamido)propanoicacid] yielded a melting point of 131 to 132 °C. Also, in data set [1] (read-out: Aβ42 % Inh), the inhibition at 1 µM amounted to 56%.

In turn, `O=C(O)c1ccc(CN(C2CCCCC2)S(=O)(=O)c2ccc(Cl)cc2)cc1` [Example 45, 4-((4-chloro-N-cyclohexylphenylsulfonamido)methyl)benzoic acid] registered a melting point of 135 to 137 °C. For the same molecule, in data set [2], 35900 nM corresponded to half-maximal inhibition (IC50) and the “Notch Elisa/Aβ42” value is on record as 243. Moreover, the IC50 in data set [1] is 216 nM and 47.4 nM and 180 nM.

`O=C(O)c1ccc(CN(C2CCCCC2O)S(=O)(=O)c2ccc(Cl)cc2)c(F)c1F` (stereo not drawn) [Example 67, 4-((4-Chloro-N-(2-hydroxycyclohexyl)phenylsulfonamido)methyl)-2,3-difluorobenzoic acid] showed a melting point of 134 to 136 °C. The inhibition at 1 µM in data set [1] (read-out: Aβ42 % Inh) is 11%.

`O=C(O)c1ccc(CN(C2CCCCC2)S(=O)(=O)c2ccc(Cl)cc2)c(F)c1F` [Example 71, 4-((4-Chloro-N-cyclohexylphenylsulfonamido)methyl)-2,3-difluorobenzoic acid]: the melting point lay within 111 to 112 °C. Also, 519 nM corresponded to half-maximal inhibition in data set [1] (IC50).

`O=C(O)c1ccc(CN(C2CCCCC2F)S(=O)(=O)c2ccc(Cl)cc2)c(F)c1F` (stereo not drawn) [Example 72, 4-((4-Chloro-N-(2-fluorocyclohexyl)phenylsulfonamido)methyl)-2,3-difluorobenzoic acid] registered a melting point of 108 to 109 °C. In data set [2], the IC50 turned out to be 3540 nM and the “Notch Elisa/Aβ42” value came out at 73. Moreover, the concentration for half-maximal inhibition (IC50) in data set [1] stood at 48.5 nM.

With `C[C@H](CO)NC(=O)c1ccc(CN(C2CCCCC2F)S(=O)(=O)c2ccc(Cl)cc2)c(F)c1F` (stereo partly drawn) [Example 77, 4-((4-Chloro-N-(2-fluorocyclohexyl)phenylsulfonamido)methyl)-2,3-difluoro-N—((R)-1-hydroxypropan-2-yl)benzamide], the melting point lay in the range of 126 to 128 °C. Moreover, in data set [2], the IC50 was 1020 nM and the “Notch Elisa/Aβ42” value was found to be 268. Also, the IC50 in data set [1] was 4.24 nM and 3.36 nM.

As to `O=C(O)c1ccc(CN(C2CCCCC2Cl)S(=O)(=O)c2ccc(Cl)cc2)cc1` (stereo not drawn) [Example 81, 4-((4-Chloro-N-(2-chlorocyclohexyl)phenylsulfonamido)methyl)benzoic acid], the melting point is 158 to 160 °C. Further, the inhibition at 30 µM in data set [1] (at 30 μM (concentration in brackets), read-out: Aβ42 % Inh) amounted to 0%.

Values taken from patent US20140243374A1, “Novel Sulfonamides” (The Brigham and Women's Hospital, Inc., priority 2011, published 2014).
